Each compound was assayed against human VPS34 (Homo sapiens (Human), UniProt Q8NEB9) (assay: Human VPS34 enzyme assay (Adapta TR-FRET ADP detection)). Conditions: not given.
Assay type: biochemical
Set-up: Percent Inhibition: dose or concentration left out as unconfirmed

Chain of human VPS34 (Q8NEB9 whole entry): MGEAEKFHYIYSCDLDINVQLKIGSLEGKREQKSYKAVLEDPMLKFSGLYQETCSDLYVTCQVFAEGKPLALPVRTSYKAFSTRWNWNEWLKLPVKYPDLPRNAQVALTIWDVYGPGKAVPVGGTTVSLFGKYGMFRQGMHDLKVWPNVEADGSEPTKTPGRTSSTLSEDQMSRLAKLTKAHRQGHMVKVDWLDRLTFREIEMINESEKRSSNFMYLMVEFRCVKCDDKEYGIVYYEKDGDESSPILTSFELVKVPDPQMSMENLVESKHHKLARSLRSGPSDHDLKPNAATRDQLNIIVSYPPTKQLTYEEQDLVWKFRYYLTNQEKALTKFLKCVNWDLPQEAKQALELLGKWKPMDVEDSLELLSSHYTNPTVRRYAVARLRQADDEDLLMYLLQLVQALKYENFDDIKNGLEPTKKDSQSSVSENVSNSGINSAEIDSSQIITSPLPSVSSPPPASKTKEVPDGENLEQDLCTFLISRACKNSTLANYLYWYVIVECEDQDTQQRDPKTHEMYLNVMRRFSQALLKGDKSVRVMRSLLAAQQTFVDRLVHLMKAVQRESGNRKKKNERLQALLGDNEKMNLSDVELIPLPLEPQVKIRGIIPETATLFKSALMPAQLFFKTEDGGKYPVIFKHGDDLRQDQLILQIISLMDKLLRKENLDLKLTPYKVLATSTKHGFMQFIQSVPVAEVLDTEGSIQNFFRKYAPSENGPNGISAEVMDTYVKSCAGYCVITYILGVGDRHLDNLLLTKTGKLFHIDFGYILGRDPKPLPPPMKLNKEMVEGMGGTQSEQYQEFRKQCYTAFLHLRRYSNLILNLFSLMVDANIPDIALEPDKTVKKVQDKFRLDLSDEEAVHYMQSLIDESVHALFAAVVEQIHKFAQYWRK

SMILES | Percent Inhibition [%]
Cc1nc(Nc2cc(-c3cnc(Cl)c(NS(=O)(=O)c4ccc(F)cc4F)c3C)ccn2)ccc1C#N [Compound I-238, N-[6-chloro-2′-[(5-cyano-6-methylpyridin-2-yl)amino]-4-methyl-3,4′-bipyridin-5-yl]-2,4-difluorobenzenesulfonamide] | 93

Same assay, conditions: IC50 range class

SMILES | IC50 [nM]
CNc1ncc(-c2ccnc(Nc3ccncn3)c2)cc1C(=O)N(C)C12CC(C1)C2 [Compound I-222, N-(bicyclo[1.1.1]pent-1-yl)-N-methyl-6-(methylamino)-2′-(pyrimidin-4-ylamino)-3,4′-bipyridine-5-carboxamide] | 10 to 50
Cc1nccc(Nc2cc(-c3cnc(C)c(C(=S)N4CCC4)c3)ccn2)n1 [Compound I-223, Azetidin-1-yl{6-methyl-2′-[(2-methylpyrimidin-4-yl)amino]-3,4′-bipyridin-5-yl}methanethione] | 10 to 50
COc1ncc(-c2ccnc(Nc3ccnc(C)n3)c2)cc1S(=O)(=O)NC1CCC1 [Compound I-224, N-cyclobutyl-6-methoxy-2′-[(2-methylpyrimidin-4-yl)amino]-3,4′-bipyridine-5-sulfonamide] | 10 to 50
COc1nccc(Nc2cc(-c3cnc(Cl)c(NS(=O)(=O)c4ccc(F)cc4F)c3C)ccn2)n1 [Compound I-225, N-{6-chloro-2′-[(2-methoxypyrimidin-4-yl)amino]-4-methyl-3,4′-bipyridin-5-yl}-2,4-difluorobenzenesulfonamide] | < 10
Cc1nccc(Nc2cc(-c3cnc(Cl)c(N)c3C)ccn2)n1 [Compound I-226, 6-chloro-4-methyl-N-2′-(2-methylpyrimidin-4-yl)-3,4′-bipyridine-2′,5-diamine] | 10 to 50
CC(=O)Nc1cc(-c2cnc(Cl)c(NS(=O)(=O)c3cc(F)ccc3F)c2C)ccn1 [Compound I-227, N-(6-chloro-5-{[(2,5-difluorophenyl)sulfonyl]amino)-4-methyl-3,4′-bipyridin-2′-yl)acetamide] | 10 to 50
Cc1ncc(-c2ccnc(Nc3ccc(C#N)cn3)c2)cc1NS(=O)(=O)c1ccc(F)cc1F [Compound I-228, N-{2′-[(5-cyanopyridin-2-yl)amino]-6-methyl-3,4′-bipyridin-5-yl}-2,4-difluorobenzenesulfonamide] | < 10
Cc1nc(Nc2cc(-c3cnc(C)c(NS(=O)(=O)N(C)C)c3)ccn2)ccc1C#N [Compound I-229, N-{2′-[(5-cyano-6-methylpyridin-2-yl)amino]-6-methyl-3,4′-bipyridin-5-yl}-N,N-dimethylsulfuric diamide] | < 10
COc1nccc(Nc2cc(-c3cnc(N)c(C(=O)N(C)C45CC(C4)C5)c3)ccn2)n1 [Compound I-230, 6-amino-N-(bicyclo[1.1.1]pent-1-yl)-2′-((2-methoxypyrimidin-4-yl)amino)-N-methyl-[3,4′-bipyridine]-5-carboxamide] | 10 to 50
Nc1cncc(-c2ccnc(N)c2)c1 [Compound I-231, 3,4′-bipyridine-2′,5-diamine] | > 100
Cc1nccc(Nc2cc(-c3cnc(Cl)c(C(=O)N4CCC4)c3)ccn2)n1 [Compound I-232, azetidin-1-yl[6-chloro-2′-[(2-methylpyrimidin-4-yl)amino]-3,4′-bipyridin-5-yl}methanone] | 10 to 50
Cc1ncc(-c2ccnc(Nc3nc4ccccc4o3)c2)cc1NS(=O)(=O)c1ccc(F)cc1F [Compound I-233, N-[2′-(1,3-benzoxazol-2-ylamino)-6-methyl-3,4′-bipyridin-5-yl}2,4-difluorobenzenesulfonamide] | 10 to 50
Cc1nccc(Nc2cc(-c3cncc(C(=O)N(C)C45CC(C4)C5)c3)ccn2)n1 [Compound I-234, N-(bicyclo[1.1.1]pent-1-yl)-N-methyl-2′-[(2-methylpyrimidin-4-yl)amino]-3,4′-bipyridine-5-carboxamide] | 10 to 50
Cc1ccc2ccc(Nc3cc(-c4cnc(C)c(NS(=O)(=O)c5ccc(F)cc5F)c4)ccn3)nc2n1 [Compound I-235, 2,4-difluoro-N-{6-methyl-2′-[(7-methyl-1,8-naphthyridin-2-yl)amino]-3,4′-bipyridin-5-yl}benzenesulfonamide] | 10 to 50
CC(=O)Nc1cc(-c2cnc(Cl)c(NS(=O)(=O)N(C)C)c2C)ccn1 [Compound I-236, N-{6-chloro-5-[(dimethylsulfamoyl)amino]-4-methyl-3,4′-bipyridin-2′-yl}acetamide] | 10 to 50
Cc1ncc(-c2ccnc(Nc3ccnc(C(F)(F)F)n3)c2)cc1NS(=O)(=O)c1ccc(F)cc1F [Compound I-237, 2,4-difluoro-N-(6-methyl-2′-{[2-(trifluoromethyl)pyrimidin-4-yl]amino}-3,4′-bipyridine-5-yl)benzenesulfonamide] | 10 to 50
Cc1nc(Nc2cc(-c3cnc(Cl)c(NS(=O)(=O)c4ccc(F)cc4F)c3C)ccn2)ccc1C#N [Compound I-238, N-[6-chloro-2′-[(5-cyano-6-methylpyridin-2-yl)amino]-4-methyl-3,4′-bipyridin-5-yl]-2,4-difluorobenzenesulfonamide] | < 10
Cc1ncc(-c2ccnc(Nc3ccncn3)c2)cc1NS(=O)(=O)c1ccc(F)cc1F [Compound I-239, 2,4-difluoro-N-(6-methyl-2′-(pyrimidin-4-ylamino)-3,4′-bipyridin-5-yl]benzenesulfonamide] | < 10
CC(=O)Nc1cc(-c2cnc(Cl)c(NS(=O)(=O)c3ccccc3Cl)c2C)ccn1 [Compound I-240, N-(6-chloro-5-{[(2-chlorophenyl)sulfoayl]amino}-4-methyl-3,4′-bipyridin-2′-yl)acetamide] | 10 to 50
COC(=O)Nc1cc(-c2cnc(C)c(NS(=O)(=O)N(C)C)c2)ccn1 [Compound I-241, methyl (5-[(dimethylsulfamoyl)amino]-6-methyl-3,4′-bipyridin-2′-yl]carbamate] | 10 to 50
Cc1nccc(Nc2cc(-c3cnc(Cl)c(S(=O)(=O)NC45CC(C4)C5)c3)ccn2)n1 [Compound I-242, N-(bicyclo[1.1.1]pent-1-yl)-6-chloro-2′-[(2-methylpyrimidin-4-yl)amino]-3,4′-bipyridine-5-sulfonamide] | 10 to 50
CC(=O)Nc1cc(-c2cnc(Cl)c(NS(=O)(=O)c3ccc(Cl)cc3Cl)c2C)ccn1 [Compound I-243, N-(6-chloro-5-{[(2,4-dichlorophenyl)sulfonyl]amino}-4-methyl-3,4′-bipyridin-2′-yl)acetamide] | 10 to 50
Cc1ncc(-c2ccnc(NC(=O)C3CC3(F)F)c2)cc1NS(=O)(=O)N(C)C (stereo not shown) [Compound I-244, N-{5-[(dimethylsulfamoyl)amino]-6-methyl-3,4′-bipyridin-2′-yl}-2,2-difluorocyclopropanecarboxamide] | 10 to 50
COc1nccc(Nc2cc(-c3cncc(C(=O)N(C)C45CC(C4)C5)c3)ccn2)n1 [Compound I-245, N-(bicyclo[1.1.1]pent-1-yl)-2′-[(2-methoxypyrimidin-4-yl)amino]-N-methyl-3,4′-bipyridine-5-carboxamide] | 10 to 50
Cc1ncc(-c2ccnc(Nc3ccnc(C4CC4)n3)c2)cc1C(=O)N1CCC1 [Compound I-246, azetidin-1-yl{2′-[(2-cyclopropylpyrimidin-4-yl)amino]-6-methyl-3,4′-bipyridin-5-yl}methanone] | 10 to 50
CC(=O)Nc1cc(-c2cnc(C)c(NS(=O)(=O)c3ccc(F)cc3F)c2C)ccn1 [Compound I-247, N-(5-{[(2,4-difluorophenyl)sulfonyl]amino}-4,6-dimethyl-3,4′-bipyridin-2′-yl)acetamide] | 10 to 50
COc1ncc(-c2ccnc(NC(C)=O)c2)c(C)c1NS(=O)(=O)c1ccc(F)cc1F [Compound I-248, N-(5-{[(2,4-difluorophenyl)sulfonyl]amino}-6-methoxy-4-methyl-3,4′-bipyridin-2′-yl)acetamide] | 10 to 50
